Data: PMC6967409 (Frontiers in Chemistry, 2020)
Where “and” joins values, the source holds several entries; their conditions need not be identical. Equal values may be shown once. Read-outs that look alike come from different tables or passages of the source.

Tests used:
[1] = test system: P. berghei ANKA GFP-Luc-SMcon sporozoites; test: P. berghei-luciferase liver stage bioluminescence assay (causal prophylactic mode) in HepG2-CD81 cells; type: cell-based, Plasmodium berghei; conditions: for Emax: 48 h, read-out: P.berghei-Luciferase Liver Stage Bioluminescence Assay: Maximum measured (%)
Experimental: (§1) Briefly, HepG2-CD81 cells were seeded into 1,536 well plates containing 50 nL of test and control compounds diluted into DMSO. […] Next, 2 μL of luciferin reagent (Promega BrightGlo) was added to each well and luciferase activity was detected using a Perkin Elmer Envision plate reader. […] In parallel, plates were processed without sporozoites for HepG2 toxicity measurements.
(§2) In continuation of the transmission blocking theme, it is important to establish activities against liver stage parasites. […] This assay uses ultra-high-throughput screening methods optimized for a 1536-well format and a HepG2 human hepatoma cell line. […] To establish selectivity of the compounds for the parasite in the liver stage of infection, cytotoxicity was determined by measuring bioluminescence from the reaction between free ATP of compound-treated, uninfected hepatocytes and a luciferase reporter system.

[2] = HepG2 cytotoxicity bioluminescence assay (CellTiterGlo, ATP); type: cell-based, human; conditions: human, uninfected HepG2-CD81 cells; for IC50 at 72 h: two biological replicates listed in one cell; for EC50 at 72 h: uninfected HepG2, ATP bioluminescence
Experimental: as §1, §2

HepG2 cells = test: as above; type: cell-based, human; conditions: two biological replicates listed in one cell
Experimental: as §1, §2

P. falciparum NF54 [3] = test: Proliferative (SYBR Green I) assay, asexual parasites, 96 h; type: cell-based; conditions: Plasmodium falciparum, ±SEM
Experimental: (§3) P. falciparum parasites (NF54, K1, and W2) were cultured in vitro in human erythrocytes (A^+ or O^+) under 90% N2, 5% CO2, and 5% O2 atmospheric conditions with supplemented RPMI 1640 media (Sigma Aldrich) containing Albumax II, as previously described (Verlinden et al., [2011]). This study was carried out according the guidelines set out by the Faculty of Health Sciences Ethical Committee, Ethical Clearance no. EC-120821/077. The protocol was approved by the Faculty of Health sciences ethical committee at the University of Pretoria. All subjects gave written informed consent in accordance with the Declaration of Helsinki. Parasite proliferation was monitored microscopically using Giemsa stained smears. Synchronized ring stage parasites (>95%) were obtained using a 5% D-sorbitol (Sigma Aldrich) treatment. […] Gametocyte cultures were kept stationary under 90% N2, 5% CO2, and 5% O2 atmospheric conditions at 37°C and treated with 50 mM N-acetyl-glucosamine (NAG) to eliminate residual invasion of asexual parasites.
(§4) Working solutions of the derivatives were prepared from a 10 mM stock solution in 100% DMSO in supplemented RPMI 1640 media containing Albumax II with a final DMSO concentration of <0.1%, previously determined as being non-toxic to intraerythrocytic asexual parasites and gametocytes. Dose responses were assayed using a two-fold serial drug dilution on in vitro >95% ring stage intraerythrocytic P. falciparum parasites at 37°C under 90% N2, 5% CO2, and 5% O2 atmospheric conditions, detecting both parasite lactate dehydrogenase (pLDH) activity as a metabolic marker following a 48 h drug exposure (1.5–2% parasitemia and 2% hematocrit; Makler et al., [1993]) and SYBR Green I fluorescence as proliferative marker following a 96 h drug exposure (1% parasitemia and 1% hematocrit). […] Data analysis was performed using GraphPad Prism 7.

P. falciparum W2 = test: as above; type: cell-based; conditions: Plasmodium falciparum, ±SEM
Experimental: as §3, §4

P. falciparum K1 = test: as above; type: cell-based; conditions: Plasmodium falciparum, ±SEM
Experimental: as §3, §4

[4] = Cytotoxicity, Cytoselect LDH cytotoxicity assay kit; type: cell-based; conditions: human, HepG2 cells
Experimental: (§5) Cytotoxicity (EC50) was determined against Chinese hamster ovarian (CHO) using a 3-(4,5-dimethylthiazol-2-yl)-2,5-diphenyltetrazolium bromide (MTT) assay and hepatocellular carcinoma cells (HepG2) using the Cytoselect LDH cytotoxicity assay kit (Cell Biolabs).

[5] = test system: P. falciparum NF54 early stage gametocytes (>90% stage I–III); test: Gametocytocidal luciferase reporter assay, early stage, 48 h; type: cell-based; conditions: Plasmodium falciparum, NF54, 48 h, read-out: Early Stage (EG, Luc 48 h) IC50
Experimental: as §3
(§6) Gametocytocidal activity was determined using the luciferase reporter line (Reader et al., [2015]) to derive dose responses with two-fold serial drug dilutions for 48 h against early stage gametocytes (day 5 post-induction population, >90% stage I–III) and 10-fold serial drug dilutions for 72 h against late stage gametocytes (day 10 post-induction population, >90% late stage IV–V) (2% gametocytemia, 2% hematocrit), at 37°C under 90% N2, 5% CO2, and 5% O2 atmospheric conditions.

[6] = test system: P. falciparum NF54 late stage gametocytes (>90% stage IV and V); test: Gametocytocidal luciferase reporter assay, late stage, 72 h; type: cell-based, Plasmodium falciparum
Experimental: as §3, §6

[7] = test system: asexual P. falciparum NF54, Dd2, K1, W2; test: Asexual P. falciparum, metabolic (pLDH) and proliferative (SYBR Green I) platforms; type: cell-based; conditions: Plasmodium falciparum; drug-sensitive and -resistant parasites, both assay platforms; read-out: IC50, asexual P. falciparum metabolic activity and proliferation
Experimental: Data analysis was performed using GraphPad Prism 7.
The in vitro activities of the new derivatives were determined against drug sensitive NF54 and multi-drug resistant Dd2, K1, and W2 intraerythrocytic asexual P. falciparum malaria parasite strains using both a metabolic (parasite LDH) and a proliferative (SYBR Green I fluorescence) assay readout (Table 1).

Cytotoxicity, MTT assay = type: cell-based; conditions: Chinese hamster, CHO cells
Experimental: as §5

P. falciparum Dd2 = test: Metabolic (parasite LDH) assay, asexual ring stage parasites, 48 h; type: cell-based; conditions: Plasmodium falciparum, pLDH, Dd2 CQ, pyrimethamine resistant
Experimental: as §4

P. falciparum NF54 [8] = test: as above; type: cell-based; conditions: Plasmodium falciparum, pLDH, CQ-sensitive NF54
Experimental: as §3, §4

[9] = Plasmodium berghei, HepG2, 48 h, liver stage, HepG2 host cells, luciferase after 48 h, ±SD, read-out: P. berghei sporozoites IC50
[10] = Plasmodium berghei, two biological replicates listed in one cell
[11] = Plasmodium berghei, two biological replicates listed in one cell, read-out: P.berghei-Luciferase Liver Stage Bioluminescence Assay: IC50
[12] = two biological replicates listed in one cell, read-out: P.berghei-Luciferase Liver Stage Bioluminescence Assay: IC50
[13] = >90% stage I–III gametocytes, ±SEM
[14] = Plasmodium falciparum, NF54, 72 h, read-out: Late Stage (LG, Luc 72 h) IC50, >90% stage IV and V gametocytes, ±SEM
[15] = read-out: Late Stage (LG, Luc 72 h) IC50, >90% stage IV and V gametocytes, ±SEM

| Compound | IC50 (P. falciparum NF54 [3]) [nM] | IC50 (P. falciparum W2) [nM] | IC50 (P. falciparum K1) [nM] | EC50 [4] [nM] | IC50 [5, 13] [nM] | IC50 [6, 14] [nM] | EC50 (Cytotoxicity, MTT assay) [nM] | IC50 (P. falciparum Dd2) [nM] | IC50 (P. falciparum NF54 [8]) [nM] | further results |
| --- | --- | --- | --- | --- | --- | --- | --- | --- | --- | --- |
| CO[C@H]1O[C@@H]2O[C@@]3(C)CC[C@H]4[C@H](C)CC[C@@H]([C@H]1C)[C@@]24OO3 [Artemether 3, artemether] | – | – | – | – | – | – | – | – | – | IC50 [1, 9]: > 10000 nM; inhibition at 10 µM ([1]; Plasmodium berghei, Conc. 10 μM, read-out: P. berghei sporozoites Maximum inhibition %): 49.4% |
| O=C1C(O)=C([C@H]2CC[C@H](c3ccc(Cl)cc3)CC2)C(=O)c2ccccc21 [Atovaquone] | – | – | – | – | – | – | – | – | – | Emax [1, 10]: 92.9%; IC50 [1, 9]: 2.52 ± 0.997 nM; IC50 [1, 11]: 3.23 nM; inhibition at 0.5 µM ([1]; Plasmodium berghei, Conc. 0.5 μM, read-out: P. berghei sporozoites Maximum inhibition %): 94.8 ± 2.76%; IC50 [1, 12]: 1.81 nM; IC50 at 72 h [2]: > 250 nM; EC50 at 72 h [2]: > 250 nM; HepG2 Cytotoxicity Bioluminescence Assay: Maximum measured (%) (HepG2 cells): 16.9% and 8.57%; IC50 (HepG2 cells): > 250 nM |
| CCCCS(=O)(=O)N1CCN([C@@H]2O[C@@H]3O[C@@]4(C)CC[C@H]5[C@H](C)CC[C@@H]([C@H]2C)[C@@]35OO4)CC1 [Compound 13] | 2.7 ± 0.6 | 4.4 ± 1 | 3.1 ± 0.1 | 2720 | 21.5 ± 10.4 | 0.4 to 0.7 | – | – | – | IC50 [6, 15]: 0.5 ± 0.3 nM |
| CCCCCCCCCCCCCCCCS(=O)(=O)N1CCN([C@@H]2O[C@@H]3O[C@@]4(C)CC[C@H]5[C@H](C)CC[C@@H]([C@H]2C)[C@@]35OO4)CC1 [Compound 14] | – | – | – | – | – | – | – | – | – | IC50 [7]: 50 to 100 nM |
| CC(=O)Nc1ccc(S(=O)(=O)N2CCN([C@@H]3O[C@@H]4O[C@@]5(C)CC[C@H]6[C@H](C)CC[C@@H]([C@H]3C)[C@@]46OO5)CC2)cc1 [Compound 15] | 2.7 ± 0.7 | 5.4 ± 0.5 | 3.4 ± 0.3 | 1950 | 8 ± 2.3 | – | > 177000 | 3.54 ± 0.32 | 1.3 ± 0.5 | – |
| C[C@H]1[C@H](N2CCN(S(=O)(=O)c3cccc(C(F)(F)F)c3)CC2)O[C@@H]2O[C@@]3(C)CC[C@H]4[C@H](C)CC[C@@H]1[C@@]24OO3 [Compound 16] | 3.4 ± 0.6 | 4.6 ± 0.2 | 5 | 431 | 19.7 ± 9.9 | 0.4 to 0.7 | > 178000 | 7.46 ± 1.07 | 1.13 ± 0.12 | IC50 [6, 15]: 0.4 ± 0.3 nM |
| C[C@H]1[C@H](N2CCN(S(=O)(=O)c3cccc(F)c3)CC2)O[C@@H]2O[C@@]3(C)CC[C@H]4[C@H](C)CC[C@@H]1[C@@]24OO3 [Compound 17] | 3.1 ± 0.2 | 4.6 ± 0.2 | 4.85 ± 1.1 | 637 | 13.1 ± 7.2 | 0.4 to 0.7 | > 196000 | 6.2 ± 0.7 | 2 ± 0.6 | IC50 [6, 15]: 0.6 ± 0.4 nM |
| C[C@H]1[C@H](N2CCN(S(=O)(=O)c3ccc(F)cc3)CC2)O[C@@H]2O[C@@]3(C)CC[C@H]4[C@H](C)CC[C@@H]1[C@@]24OO3 [Compound 19] | 3.4 ± 0.4 | 4.8 ± 0.5 | 4.2 ± 0.1 | 558 | 12.1 ± 4.5 | 0.7 ± 0.5 | > 196000 | 9.8 ± 0.4 | 1.65 ± 0.04 | – |
| CCCCCCNC(=O)N1CCN([C@@H]2O[C@@H]3O[C@@]4(C)CC[C@H]5[C@H](C)CC[C@@H]([C@H]2C)[C@@]35OO4)CC1 [Compound 20] | – | – | – | – | – | – | – | – | – | IC50 [7]: 50 to 100 nM |
| CCCCCCCCCCCCCCCCNC(=O)N1CCN([C@@H]2O[C@@H]3O[C@@]4(C)CC[C@H]5[C@H](C)CC[C@@H]([C@H]2C)[C@@]35OO4)CC1 [Compound 21] | – | – | – | – | – | – | – | – | – | IC50 [7]: 50 to 100 nM |
| C[C@H]1[C@H](N2CCN(C(=O)Nc3ccc(C(C)(C)C)cc3)CC2)O[C@@H]2O[C@@]3(C)CC[C@H]4[C@H](C)CC[C@@H]1[C@@]24OO3 [Compound 22] | 1.87 ± 0.12 | 1.48 ± 0.14 | 1.12 ± 0.08 | 616 | – | 17.7 ± 15.1 | 2920 | 24.7 ± 2.79 | 2.11 ± 0.53 | IC50 [5]: 45.9 ± 9.9 nM |
| C[C@H]1[C@H](NS(=O)(=O)N2CCN(c3ccccn3)CC2)O[C@@H]2O[C@@]3(C)CC[C@H]4[C@H](C)CC[C@@H]1[C@@]24OO3 [Compound 29] | 4.3 ± 0.4 | 3.3 ± 0.7 | 4.9 ± 0.9 | 173 | 24.7 ± 4.9 | 0.04 ± 0.03 | > 197000 | 6.4 ± 1.4 | 1.68 ± 0.18 | – |
| C[C@H]1[C@H](NS(=O)(=O)N2CCN(c3ccc(C(F)(F)F)cn3)CC2)O[C@@H]2O[C@@]3(C)CC[C@H]4[C@H](C)CC[C@@H]1[C@@]24OO3 [Compound 30] | 3.3 ± 0.3 | 3 ± 1 | 4.3 ± 1.3 | 311 | 19.3 ± 6.2 | 4 ± 3.8 | 34300 | 9.64 ± 0.6 | 1.8 ± 0.6 | – |
| COc1ccc(C[C@H](N)C(=O)N[C@H]2[C@@H](O)[C@H](n3cnc4c(N(C)C)ncnc43)O[C@@H]2CO)cc1 [Puromycin] | – | – | – | – | – | – | – | – | – | Emax [1, 10]: 107%; IC50 [1, 9]: 22.7 ± 4.53 nM; IC50 [1, 11]: 19.5 nM; inhibition at 5 µM ([1]; Plasmodium berghei, Conc. 5 μM, read-out: P. berghei sporozoites Maximum inhibition %): 110 ± 4.24%; IC50 [1, 12]: 25.9 nM; IC50 at 72 h [2]: 114 nM; EC50 at 72 h [2]: 117 nM; HepG2 Cytotoxicity Bioluminescence Assay: Maximum measured (%) (HepG2 cells): 102.0% and 105.0%; IC50 (HepG2 cells): 120 nM |
